Data set [1] concerns Mycobacterium tuberculosis H37Rv. Briefly: Antimycobacterial screening, microdilution broth panel method with resazurin (Alamar blue). In kind it is cell-based. Particulars: for MIC: read-out: Minimum Inhibitory Concentrations M. tbc H37Rv.
Data set [2] is described as follows: Experimental lipophilicity logk by RP-HPLC. Particulars: methanol 70% / water 30%, C18.
Protocol: These values were compared with logk, an experimentally measured lipophilicity parameter derived from retention times acquired by RP-HPLC.
Experimental lipophilicity parameter logk values were determined using HPLC method. […] The separation process was handled by Agilent ChemStation, version B.04.02 extended with spectral module (Agilent Technologies Inc.). A mixture of methanol (HPLC grade, 70%) and water (HPLC-Milli-Q Grade, 30%) was used as mobile phase. The total flow rate of the column was set to 1.0 mL/min, injection 20 μL, column temperature 30 °C. 210 nm as detection wavelength and 270 nm as monitor wavelength were chosen. A methanolic solution of KI was used for the determination of dead time (TD). Retention times (TR) of synthesized compounds were measured in minutes. Capacity factors k were calculated according to formula k = (TR − TD)/TD, where TR is the retention time of the solute and TD denotes the dead time obtained via an unretained analyte (KI). Logk, which was calculated from the capacity factor k, is used as the lipophilicity index.
Data set [3] relates to Mycobacterium smegmatis CCM 4622 (ATCC 607). Briefly: Mycobacterium smegmatis screening, microdilution broth panel method with resazurin. The settings on record: Middlebrook 7H9 broth, 48 h incubation; for MIC: Mycolicibacterium smegmatis, 48 h, read-out: Minimum Inhibitory Concentrations M. smegmatis. The format is cell-based.
For data set [4], the system named is eight common bacterial strains. Briefly: Antibacterial screening, microdilution broth panel method. In kind it is cell-based. Particulars: all tested bacterial strains, pH 7.0; read-out: Minimum Inhibitory Concentrations Bacteria. On the technique in general: Dilution methods test growth across graded concentrations, often in twofold steps.
The subject of a further data set is M. tbc H37Rv. The settings on record: cited from earlier work.
The subject of data set [5] is Enterococcus faecalis J 14365/08. In words: Antibacterial screening, microdilution broth panel method. The settings on record: J14365/08; Enterococcus faecalis J 14365/08, pH 7.0; read-out: Minimum Inhibitory Concentrations Bacteria, EF. In kind it is cell-based.
Another data set can be described thus: in vitro. The settings on record: human, IC50 (cytotoxicity), HepG2, 24 h incubation.
The subject of another data set is M. kansasii My 235/80. Briefly: Antimycobacterial screening, microdilution broth panel method with resazurin (Alamar blue). In kind it is cell-based. Particulars: Mycobacterium kansasii, MY235/80; pH 5.6, 5–7 days incubation.
Data set [6] concerns Staphylococcus aureus CCM 4516/08. Briefly: Antibacterial screening, microdilution broth panel method. The format is cell-based.
A further data set has as its system HepG2 cell line. Particulars: read-out: IC50 (cytotoxicity); HepG2, 24 h incubation.
Where [7] appears, read: Mycobacterium tuberculosis, H37RV, 336 h, pH 5.6, Sula's broth pH 5.6, 14 days incubation.
Where [8] appears, read: Mycobacterium tuberculosis, H37RV, 336 h, pH 5.6, Sula's broth pH 5.6, 14 days incubation, n.a. = not active.

In brackets after ≈: the same amount, converted by molar mass. Several values for one entry are separate records, joined by “and”; a condition that tells them apart may be missing. Equal entries are not always repeated. Where two headings read alike, the source gives them in different places.

Consider `NC(=O)c1nccnc1NCc1cccc([N+](=O)[O-])c1` [Compound 15, 3-[(3-Nitrobenzyl)amino]pyrazine-2-carboxamide], for which the results for the MIC in data set [1] (setting [7]), in data set [3] and in data set [4] were above 100 µg/mL, at least 500 µg/mL and above 500 µM, respectively. The compound further registered a Logk in [2] of 0.101.
Take `N#Cc1cnc(C#N)c(NCc2ccc(N)cc2)n1` [Compound 9-B]: in the data set on M. tbc H37Rv (series A and B), the “MIC against M. tbc H37Rv” value was 25 µg/mL and 100 µM.
Turning to `Cc1ccc(CNc2nc(C#N)c(C#N)nc2C)cc1` [Compound 8-C], the “MIC against M. tbc H37Rv” value with M. tbc H37Rv (series C) is 25 µg/mL and 95 µM.
For `CO[C@H]1/C=C/O[C@@]2(C)Oc3c(C)c(O)c4c(O)c(c(/C=N/N5CCN(C)CC5)c(O)c4c3C2=O)NC(=O)/C(C)=C\C=C\[C@H](C)[C@H](O)[C@@H](C)[C@@H](O)[C@@H](C)[C@H](OC(C)=O)[C@@H]1C` [RFM, rifampicin, reference compound], in data set [3], the “Minimum Inhibitory Concentrations M. smegmatis” value was in the range of 0.78 to 1.56 µg/mL and the MIC came out at 0.39 µg/mL (≈ 0.474 µM).
As to `Cc1nc(C#N)c(C#N)nc1NCc1ccc(N)cc1` [Compound 9-C], the “MIC against M. tbc H37Rv” value in the data set with M. tbc H37Rv (series C) is 25 µg/mL and 95 µM.
Take `NC(=O)c1nccnc1NCc1ccc(Cl)c(Cl)c1` [Compound 3, 3-[(3,4-Dichlorobenzyl)amino]pyrazine-2-carboxamide]: the MIC was above 100 µg/mL in [1] (setting [7]), at least 500 µg/mL in data set [3] and above 500 µM in [4]. For the same compound, in data set [2], the Logk is on record as 0.470.
With `N#Cc1cnc(C#N)c(NCc2ccccc2)n1` [Compound 1-B], the “MIC against M. tbc H37Rv” value in the data set with M. tbc H37Rv (series A and B) is on record as 12.5 µg/mL (≈ 53.1 µM).
For `Cc1ccc(CNc2nc(C#N)cnc2C#N)cc1` [Compound 8-B], the “MIC against M. tbc H37Rv” value in the data set on M. tbc H37Rv (series A and B) was 6.25 µg/mL and 25 µM.
As to `NC(=O)c1nccnc1NCc1cccc(Cl)c1` [Compound 2, 3-[(3-Chlorobenzyl)amino]pyrazine-2-carboxamide], the MIC was above 100 µg/mL in data set [1] (setting [7]), at least 500 µg/mL in data set [3] and above 500 µM in [4]. In [2], this compound returned a Logk of 0.373.
For `NC(=O)c1nccnc1NCc1ccccc1C(F)(F)F` [Compound 13, 3-[(2-Trifluoromethylbenzyl)amino]pyrazine-2-carboxamide], the MIC in [1] (setting [7]) was above 100 µg/mL; in [3] it was at least 500 µg/mL; in data set [5] it was 125 µM (≈ 37 µg/mL). The compound also returned a Logk in data set [2] of 0.495.
Turning to `NC(=O)c1nccnc1NCc1ccc(N)cc1` [Compound 9, 3-[(4-Aminobenzyl)amino]pyrazine-2-carboxamide], in the data set “in vitro”, the half-inhibitory concentration (IC50) (as a rule, the concentration that inhibits the measured activity by half) was above 750 µM. This compound also yielded a Logk in [2] of −0.313. For the same compound, the MIC in data set [3] was 250 µg/mL (≈ 1030 µM); in [4], above 500 µM.
As for `NC(=O)c1cnccn1` [PZA, pyrazinamide], the MIC is 102 µM in [1] (setting [8]), 12.5 µg/mL in data set [1] (setting [7]) and at least 500 µg/mL in data set [3].
Regarding `NC(=O)c1nccnc1NCc1ccccc1F` [Compound 11, 3-[(2-Fluorobenzyl)amino]pyrazine-2-carboxamide], the MIC in data set [1] (setting [7]) was above 100 µg/mL; in [3], at least 500 µg/mL; in data set [5], 125 µM (≈ 30.8 µg/mL). The Logk in data set [2] was determined as 0.248.
As to `NC(=O)c1nccnc1NCc1cccc(C(F)(F)F)c1` [Compound 4, 3-[(3-Trifluoromethylbenzyl)amino]pyrazine-2-carboxamide], the MIC against M. kansasii My 235/80 is 25 µg/mL and 84 µM; in data set [6] (Staphylococcus aureus, CCM4516, pH 7, Staphylococcus aureus CCM 4516/08, pH 7.0, read-out: Minimum Inhibitory Concentrations Bacteria, SA), 31.2 µM (≈ 9.26 µg/mL); in [3], 250 µg/mL (≈ 844 µM). The IC50 in “in vitro” came out at 76.5 µM. Besides, the “Minimum Inhibitory Concentrations Bacteria, SA” value in data set [6] (Staphylococcus aureus CCM 4516/08, pH 7.0) was 31.25 SA ^a µM. This compound also returned a Logk in data set [2] of 0.403.
Turning to `N#Cc1cnc(C(N)=O)c(NCc2ccc(N)cc2)n1` [Compound 9-A], the “MIC against M. tbc H37Rv” value in the data set with M. tbc H37Rv (series A and B) is 12.5 µg/mL and 47 µM.
For the compound `Cc1ccc(CNc2nccnc2C(N)=O)cc1` [Compound 8, 3-[(4-Methylbenzyl)amino]pyrazine-2-carboxamide], the MIC in [1] (setting [8]) is 6 to 42 µM; in [1] (setting [7]), 1.56 to 12.5 µg/mL; in data set [1] (Sula's broth pH 5.6, 14 days incubation, n.a. = not active), 6 µM; in data set [3], at least 500 µg/mL; in [4] it was above 500 µM. Also, in data set [1] (Sula's broth pH 5.6, 14 days incubation), the “Minimum Inhibitory Concentrations M. tbc H37Rv” value was 1.56 µg/mL. For the same compound, the results for the IC50 in “in vitro” and with HepG2 cell line were at least 250 µM and above 250 µM, respectively. The compound also registered a Logk in [2] of 0.441.
In the case of `COc1ccc(CNc2nccnc2C(N)=O)cc1` [Compound 7, 3-[(4-Methoxybenzyl)amino]pyrazine-2-carboxamide], the MIC is above 100 µg/mL in data set [1] (setting [7]), at least 500 µg/mL in data set [3] and above 500 µM in data set [4]. In data set [2], this compound had a Logk of 0.194.
As for `NNC(=O)c1ccncc1` [INH, isoniazid, reference compound], the MIC against M. kansasii My 235/80 was 1.56 µg/mL to 12.5 µg/mL and 11 µM to 91 µM; in [1] (setting [8]) it was 3 µM; in data set [1] (setting [7]), 0.39 µg/mL. For the same compound, the figures for the “Minimum Inhibitory Concentrations M. smegmatis” value in data set [3] and in data set [3] (listed as isoniazid) were 7.81 to 15.63 µg/mL and 15.63 µg/mL, respectively.
As for `Cc1nc(C#N)c(C#N)nc1NCc1cccc(C(F)(F)F)c1` [Compound 4-C], the “MIC against M. tbc H37Rv” value in the data set on M. tbc H37Rv (series C) was 12.5 µg/mL and 39 µM.
On to `Cc1nc(C#N)c(C#N)nc1NCc1ccccc1` [Compound 1-C], for which the “MIC against M. tbc H37Rv” value in the data set on M. tbc H37Rv (series C) is 25 µg/mL and 100 µM.
Consider `NC(=O)c1nccnc1NCc1ccccc1Cl` [Compound 10, 3-[(2-Chlorobenzyl)amino]pyrazine-2-carboxamide], for which the values for the MIC in data set [1] (setting [7]), in [3] and in data set [4] were above 100 µg/mL, at least 500 µg/mL and above 500 µM, respectively. The compound further gave a Logk in data set [2] of 0.441.
In “in vitro”, `NC(=O)c1nccnc1NCc1ccc(C(F)(F)F)cc1` [Compound 12, 3-[(4-Trifluoromethylbenzyl)amino]pyrazine-2-carboxamide] yielded an IC50 of 57.3 µM. Moreover, the Logk in data set [2] amounted to 0.502. The MIC in data set [3] was at least 500 µg/mL; in data set [5], 125 µM (≈ 37 µg/mL).
Consider `NC(=O)c1nccnc1NCc1ccccc1` [Compound 1, 3-(Benzylamino)pyrazine-2-carboxamide], for which the MIC is at least 100 µg/mL in [1] (setting [7]), at least 500 µg/mL in data set [3] and above 500 µM in data set [4]. This compound showed a Logk in [2] of 0.215.
`Cc1ccc(CNc2nc(C#N)cnc2C(N)=O)cc1` [Compound 8-A]: the “MIC against M. tbc H37Rv” value in the data set with M. tbc H37Rv (series A and B) was 12.5 µg/mL and 47 µM.
For the compound `N#Cc1cnc(C(N)=O)c(NCc2cccc(C(F)(F)F)c2)n1` [Compound 4-A], the “MIC against M. tbc H37Rv” value in the data set on M. tbc H37Rv (series A and B) was 25 µg/mL and 78 µM.
For `Cc1ccccc1CNc1nccnc1C(N)=O` [Compound 6, 3-[(2-Methylbenzyl)amino]pyrazine-2-carboxamide], the MIC in data set [1] (setting [7]) was above 100 µg/mL; in [3], at least 500 µg/mL; in [4] it was above 500 µM. The Logk in [2] amounted to 0.320.
For the compound `O=C(O)c1cn(C2CC2)c2cc(N3CCNCC3)c(F)cc2c1=O` [CPX, ciprofloxacin, reference compound], in data set [3], the “Minimum Inhibitory Concentrations M. smegmatis” value is 0.10 to 0.20 µg/mL and the MIC turned out to be 0.1 µg/mL (≈ 0.302 µM).
`NC(=O)c1nccnc1NCc1ccc(Cl)cc1` [Compound 5, 3-[(4-Chlorobenzyl)amino]pyrazine-2-carboxamide]: the figures for the MIC in [1] (setting [7]) and in [3] were above 100 µg/mL and 250 µg/mL (≈ 952 µM), respectively. For the same compound, in [2], the Logk was 0.373.
In the case of `COc1ccc(CNc2nccnc2C(N)=O)c(OC)c1` [Compound 14, 3-[(2,4-Dimethoxybenzyl)amino]pyrazine-2-carboxamide], the MIC in data set [1] (setting [7]) was above 100 µg/mL; in data set [3] it was at least 500 µg/mL; in data set [5], 62.5 µM (≈ 18 µg/mL). Further, the Logk in [2] is 0.274.
